The test system of assay [1] is durch Reserpin induzierten Hypothermie. The assay is described as follows: Antireserpine activity (reserpine-induced hypothermia). The following applies: ip. Type of assay: in vivo, Maus. As for the experimental part:
Zur Zeit 0 erhalten die Mäuse intraperitoneal Reserpin (2,5 mg/kg).
4 Stunden danach, wenn die Hypothermie genügend stark erscheint (30 bis 33°C), verabreicht man die verschiedenen zu untersuchenden Verbindungen i.p. oder p.o. Alle 30 Minuten über einen Zeitraum von 2 Stunden mißt man die Rektaltemperatur mit einer auf konstante Tiefe eingeführten, ein Thermoelement tragenden Sonde. Die Rektaltemperatur der mit verschiedenen erfindungsgemäßen Verbindungen behandelten Tiere wird mit der Temperatur einer Kontrollgruppe verglichen, die destilliertes Wasser auf die gleiche Weise wie die untersuchten Verbindungen erhält.
Die Akinesie (fehlende Bewegungen) und Ptose (Öffnungsgrad des Augenlids von 0 bis 4 nach Rubin u.a 1957) werden ebenfalls alle 30 Minuten über einen Zeitraum von 2 Stunden bewertet.
Die eine antidepressive Aktivität besitzenden Produkte wirken der durch Reserpin induzierten Hypothermie entgegen. Für jede Dosis der verabreichten Verbindung berechnet man die prozentuale Hemmung der Hypothermie.

The subject of assay [2] is Apomorphin 16 mg/kg. The assay is described as follows: Antiapomorphine activity (apomorphine 16 mg/kg s.c., hypothermia). Type of assay: in vivo, Maus. As for the experimental part: Zur Zeit 0 nach Ausgleich der Reaktaltemperaturen werden die Mäuse (6 pro Gruppe) in deren Beobachtung gestattende Einzelkäfige (11 x 3,5 x 4 cm) eingeetzt. 30 Minuten nach i.p. bzw. p.o. Verabreichung der Testsubstanz erhalten sie Apomorphin subkutan in einer Dosis von 16 mg/kg. Die Rektaltemperatur wird 30 Minuten nach dem Apomorphin gemessen. Die Kontrolltiere erhalten destilliertes Wasser statt der zu untersuchenden Verbindungen. Die bei diesen Kontrolltieren, die 16 mg/kg Apomorphin erhalten haben, beobachtete Hypothermie liegt im Durchschnitt bei 33°C. Für jede Verbindungsdosis berechnet man die prozentuale Hemmung der Hypothermie.

The subject of assay [3] is durch Oxotremorin induzierten Hypothermie. The assay is described as follows: Antioxotremorine activity (oxotremorine-induced hypothermia). It is filed as in vivo, Maus. The following applies: ip, read-out: Erste wirksame Dosis Oxotremorin. The protocol:
Nach Ausgleich der Rektaltemperaturen erhalten Mäuse (6 pro Gruppe) entweder destillietes Wasser oder die verschiedenen zu untersuchenden Verbindungen i.p.
30 Minuten danach verabreicht man intraperitoneal Oxotremorin in einer Dosis von 0,5 mg/kg.
Die Mäuse werden dan beobachtet: Tremor wird je nach der Intensität von 0 bis 3 bewertet, und die Akinesie wird alle 10 Minuten über einen Zeitraum von 30 Minuten auf Vorliegen oder Fehlen bestimmt.
Außerdem beobachtet man 2 Stunden lang das Erscheinen peripherer Symptome (Tränen, Darmentleerung). Die Rektaltemperatur wird alle 30 Minuten über eine Zeitraum von 2 Stunden nach der Verabreichung des Oxotremorins gemessen.
Die eine antidepressive Aktivität besitzenden Produkte wirken der durch Oxotremorin induzierten Hypothermie entgegen.
Für jede Dosis der Verbindung berechnet man die prozentuale Hemmung der Hypothermie.

Assay [4] has as its system Motoraktivität. The assay is described as follows: Actimetry (motor activity, photocell actimeter). The conditions noted are these: for Motilität: i.p., direction of change; for minimal effective dose: ip, read-out: Erste wirksame Dosis Motilität; for Aktimetrie: mouse, direction of change of motor activity. Type of assay: in vivo, Maus. The source says: Die Motoraktivität wird mittels Photozellenaktimetern bestimmt (Boissier und Simon, Arch. Int. Pharmacodyn. 1965, 158, 212-221).
Die Mäuse (10 oder ein Vielfaches von 10 pro Gruppe) werden unmittelbar nach i.p. Verabreichung der zu untersuchenden Verbindungen in das Aktimeter eingesetzt. Die Motoraktivität wird danach bis zur 60. Minute gemessen. De Zähler werden nach 30 Minuten abgelesen und dann auf 0 zurückgestellt und im Verlauf von 30 Minuten alle 10 Minuten abgelesen.
Die Beweglichkeit der mit den verschiedenen Verbindungen behandelten Tiere wird mit derjenigen einer destilliertes Wasser erhaltenden Kontrollgruppe verglichen.
Die eine psychostimulierende Aktivität besitzenden Produkte verursachen eine Zunahme der Beweglichkeit.

Assay [5] relates to stereotypen Bewegungen. In words: Search for stereotyped movements. It is filed as in vivo, Ratte. The following applies: rat. The source says:
Suche nach stereotypen Bewegungen an der Ratte
Unmittelbar nach i.p. oder p.o. Verabreichung der zu unteruchenden Verbindungen werden die Tiere (6 Ratten pro Gruppe) in 20 x 10 x 10 cm große, mit einem Edelstahldeckel mit Löchern von 1 cm Durchmesser versehene Einzelkäfige aus durchsichtigem Kunststoff eingesetzt. Die stereotypen Bewegungen (Bewegungen der Mundhöhle, Schnüffeln, Lecken oder Kauen) werden nach der von Simon und Chermat (J. Pharmacol. Paris, 1972, 3, 235-238) beschriebenen Methode alle 10 Minuten von 0 bis 3 bewertet, bis sie bei allen Tieren verschwunden sind.

Assay [6] concerns Maus. The assay is described as follows: Tail suspension test. It is filed as in vivo. The following applies: for minimal effective dose: ip. The source says:
Schwanzaufhängungstest an der Maus wie von Stéru u.a. beschrieben (Psychopharmacology 85, 367-370, 1985).
Die Substanzen werden intraperitoneal 30 Minuten vor dem Test verabreicht und die Tiese isoliert (10 Mäuse pro Dosis).
Man bewertet die Dauer der Unbeweglichkeit, ausgedrückt in Sekunden über die 6 Minuten des Tests. Man untersucht auf eine Verkürzung dieser Unbeweglichkeitszeit.

The test system of assay [7] is Apomorphin 1 mg.kg^-1 s.c. The assay is described as follows: Apomorphine 1 mg/kg s.c. antagonism (no method given). Type of assay: in vivo. The following applies: ip, Tabelle Ib; read-out: Erste wirksame Dosis Apomorphin 1 mg.kg^-1 s.c.
In assay [8] the test system is Toxizität des Yohimbins. The assay is described as follows: Potentiation of yohimbine toxicity. Type of assay: in vivo, Maus. The conditions noted are these: for minimal effective dose: ip. The protocol:
Wirkung auf die Toxizität des Yohimbins
Zur Zeit 0 erhalten die Mäuse entweder destilliertes Wasser oder verschiedene zu untersuchende Verbindungen i.p. 30 Minuten danach verabreicht man ihnen subkutan eine infratoxische Dosis von 25 mg/kg Yohimbinchlorhydrat.
Die Mortalität wird jede Stunde über einen Zeitraum von 4 Stunden verfolgt und dann nach 24 Stunden notiert.
Die eine antidepressive Aktivität besitzenden Produkte verursachen eine Potenzierung der Toxizität des Yohimbins.

Assay [9] has as its system Maus. In words: Behavioural despair test (Porsolt forced swimming). Type of assay: in vivo. The following applies: mouse, 4 mg/kg i.p. The source says: Test auf verzweifeltes Verhalten, wie von Porsolt u.a. (Arch. Int, Pharmacodyn. Ther. 229, 327 - 336, 1977) beschrieben.
Die Verbindungen werden intraperetoneal 30 Minuten vor dem Test verabreicht, und die Tiere werden vor dem erzwungenen Schwimmtest isoliert gehalten. Man bewertet die Dauer der Unbeweglichkeitsperioden in Sekunden ausgedrückt, die von der 2. bis zur 6. Minute nach dem Einsetzen des Tieres in Wasser gezählt werden.

The mark [10] stands for this setting: Tabelle Ib, read-out: Erste wirksame Dosis Reserpin.
Setting [11] is: ip, Tabelle Ib, read-out: Erste wirksame Dosis Apomorphin 16 mg.kg^-1 s.c.
Where [12] appears, read: Tabelle Ib, read-out: Erste wirksame Dosis T.S.T. Maus.
Setting [13] is: Mus musculus, read-out: Erste wirksame Dosis Reserpin, mouse, i.p., only or lowest value of the cell.
Where [14] appears, read: Mus musculus, ip, read-out: Erste wirksame Dosis Apomorphin 16 mg/kg, mouse, i.p., only or lowest value of the cell.

The structures appear in SMILES notation. Read-outs that look alike come from different tables or passages of the source.

With `FC(F)(F)c1ccc([C@@H]2CCNC[C@H]2c2ccccc2)cc1` (racemic) [Beispiel 3, trans-3-Phenyl-4-(4-trifluormethylphenyl)-piperidin-chlorhydrat], the minimal effective dose in [1] (setting [10]) came to 1 mg/kg; in [1] (mouse, i.p., only or lowest value of the cell, read-out: Erste wirksame Dosis Reserpin), 1 mg/kg; in assay [2] (setting [11]), 2 mg/kg; in assay [2] (ip, mouse, i.p., only or lowest value of the cell, read-out: Erste wirksame Dosis Apomorphin 16 mg/kg) it was 2 mg/kg; in assay [2] (mouse, further value in the same cell, route not stated (lowest = i.p.; p.o. also tested), read-out: Erste wirksame Dosis Apomorphin 16 mg/kg) it was 4 mg/kg; in assay [3] (Tabelle Ib) it was 8 mg/kg. Also, the minimal effective dose in assay [3] (mouse, i.p.) was 8 mg/kg; in assay [4] (Tabelle Ib) it was 32 mg/kg; in assay [6] (setting [12]), 4 mg/kg; in assay [6] (mouse, i.p., footnote of Tabelle 1, read-out: tail suspension test= positiv ab), ≥ 4 mg/kg; in assay [7], 2 mg/kg. Besides, the Motilität result in assay [4] (Tabelle Ib) was “↘”. For the same compound, the Aktimetrie entry in assay [4] is “↘”. Moreover, the “Stereotype Bewegung” value in [5] (64 mg/kg i.p.) is 0(64i.p.).
In the case of `c1ccc([C@@H]2CCNC[C@H]2c2ccccc2)cc1` (relative stereo) [21 (Base), trans-3,4-Diphenylpiperidin], the minimal effective dose in assay [1] (setting [13]), in assay [2] (setting [14]) and in assay [3] (Mus musculus) was 4 mg/kg in each case. Also, the “Erste wirksame Dosis Yohimbin” value in [8] (mouse, i.p., only or lowest value of the cell) is reported as 4 mg/kg. Further, in assay [5] (64 mg/kg p.o.), the “Stereotype Bewegung” value is 0(64p.o.).
Turning to `Clc1ccc(C2CCNCC2c2ccccc2)cc1` (stereo not drawn) [Beispiel 12, cis-4-(4-Chlorphenyl)-3-phenylpiperidin], the minimal effective dose in [1] (setting [13]) was 4 mg/kg; in assay [2] (setting [14]), 2 mg/kg; in [3] (Mus musculus) it was 16 mg/kg; in assay [8] (Mus musculus, read-out: Erste wirksame Dosis Yohimbin, mouse, i.p., only or lowest value of the cell), 16 mg/kg. Besides, the Aktimetrie result in [4] is reported as “↘ =”. Besides, the “Stereotype Bewegung” value in assay [5] (64 mg/kg i.p.) is on record as 0(64i.p.).
Regarding `CN1Cc2c(N)cccc2C(c2ccccc2)C1` (stereo not drawn) [NOMIFENSIN], the minimal effective dose worked out at 8 mg/kg in assay [1] (setting [10]); 2 mg/kg in assay [2] (setting [11]); 16 mg/kg in assay [3]; 4 mg/kg in [8] (Tabelle Ib, read-out: Erste wirksame Dosis Yohimbin); 4 mg/kg in [4] (Tabelle Ib); 0.25 mg/kg in [6] (setting [12]). Further, the minimal effective dose in [7] amounted to 2 mg/kg. The Motilität entry in assay [4] (Tabelle Ib) is given as “↗”. Also, the “% Antagonismus” value in [9] was found to be 39%; in assay [6] (mouse, 0,06 mg/kg i.p.), 35%; in assay [6] (mouse, 0,25 mg/kg i.p.), 55%; in assay [6] (mouse, 1 mg/kg i.p.), 66%; in assay [6] (mouse, 4 mg/kg i.p.), 80%. Further, the “Dauer der Unbeweglichkeit” value was 120 ± 23 p < 0,001 Sekunden in assay [9] (30 min before test); 59 ± 9 Sekunden in assay [6] (mouse, 0,06 mg/kg i.p.); 41 ± 6 p < 0,01 Sekunden in [6] (mouse, 0,25 mg/kg i.p.); 31 ± 6 p < 0,01 Sekunden in assay [6] (mouse, 1 mg/kg i.p.); 18 ± 5 p < 0,001 Sekunden in [6] (mouse, 4 mg/kg i.p.).
For `CCOc1ccccc1OCC1CNCCO1` (stereo not drawn) [VILOXAZIN, reference compound], the minimal effective dose in assay [1] (read-out: Erste wirksame Dosis Reserpin, i.p., Tabelle Ib) was found to be 4 mg/kg; in assay [2] (ip, read-out: Erste wirksame Dosis Apomorphin 16 mg.kg^-1 s.c., i.p., Tabelle Ib), 8 mg/kg; in assay [3], 4 mg/kg; in assay [8] (read-out: Erste wirksame Dosis Yohimbin, i.p., Tabelle Ib), 8 mg/kg; in [4], 16 mg/kg; in assay [6] (read-out: Erste wirksame Dosis T.S.T. Maus), 8 mg/kg. The minimal effective dose in assay [7] was > 32 mg/kg. The Motilität result in [4] (Tabelle Ib) was “↘”.

For the origin of these results see patent EP0273199A2, “Uses of 3,4-diphenyl piperidine derivatives or medicines, 3,4-diphenyl piperidine derivatives, and process for their preparation” (LABORATOIRES HOECHST S.A., priority 1986, dated 1988).
